Earlier results in US8440796B2, “Lenalidomide and thalidomide immunoassays” (Saladax Biomedical Inc., priority 2010, dated 2013).
Like-named read-outs stand apart in the source and are kept apart here.

How the values were obtained:
[1] = patients with central nervous system tumors
[2] = healthy subjects
[3] = HIV patients, phase I study

Row | SMILES | variability in Cmax [1] | variability in t1/2 [1] | variability in Cmax [2] | variability in t1/2 [2] | half-life time t1/2 [3] [h] | maximum drug concentration Cmax [3] [ng/mL]
1 | Nc1cccc2c1CN(C1CCC(=O)NC1=O)C2=O (stereo not drawn) [lenalidomide] | up to 78% | up to 122% |  |  |  | 
2 | O=C1CCC(N2C(=O)c3ccccc3C2=O)C(=O)N1 (stereo not drawn) [thalidomide] |  |  | up to 52% | up to 37% | 5.9 ± 2.3 | 2800 ± 2600
